Results on 70 compounds are retold here after PMC9579956 (RSC Medicinal Chemistry, 2022).

Each structure is given as a SMILES string.

The target of one assay is Mycobacterium thermoresistible (Mtr) LpqY (Mycolicibacterium thermoresistibile, UniProt G7CES0). In kind it is binding. The note with it: compound 100 μM, LpqY 500 nM, 10% DMSO, duplicate.
Mycobacterium thermoresistible (Mtr) LpqY, sequence (G7CES0 29-471): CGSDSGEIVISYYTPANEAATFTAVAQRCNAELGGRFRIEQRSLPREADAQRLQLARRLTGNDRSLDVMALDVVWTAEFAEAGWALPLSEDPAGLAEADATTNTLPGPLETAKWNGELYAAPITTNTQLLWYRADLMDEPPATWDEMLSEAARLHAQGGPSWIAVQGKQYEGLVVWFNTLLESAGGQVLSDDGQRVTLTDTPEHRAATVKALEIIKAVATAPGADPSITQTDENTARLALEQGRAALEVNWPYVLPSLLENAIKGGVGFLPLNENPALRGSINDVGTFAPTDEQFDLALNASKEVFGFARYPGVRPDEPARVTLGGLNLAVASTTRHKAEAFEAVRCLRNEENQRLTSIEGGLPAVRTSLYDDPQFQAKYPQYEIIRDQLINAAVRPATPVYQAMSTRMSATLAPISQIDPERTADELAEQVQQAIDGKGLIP
With `COc1cc(C2=NCCN2)ccc1-c1cn(-c2cccc(C3=NCCN3)c2)nn1` [MMV688407, 4-[4-(4,5-dihydro-1H-imidazol-2-yl)-2-methoxyphenyl]-1-[3-(4,5-dihydro-1H-imidazol-2-yl)phenyl]triazole], the “Screen signal/noise ratio (MST S/N)” value came out at 8.0.

Staying with this assay, now noted: single dose MST screen against LpqY.
On to `CC(C)(C)c1cc(C(=O)N2CCN(c3nccnc3C#N)CC2)n(Cc2ccccc2)n1` [MMV023949], for which the “Pathogen Box screen signal/noise ratio” value came to 0.7. Take `CC1CCCN(C(=O)C(C)Nc2cc(Cl)ccc2N2CCOCC2)C1` (centres unmarked) [MMV020388]: the “Pathogen Box screen signal/noise ratio” value was determined as 0.556. For the compound `Clc1ccc(-n2cc(COc3ccnc4ccccc34)nn2)cc1` [MMV675994], the “Pathogen Box screen signal/noise ratio” value is listed as 3.3. On to `O=C(Nc1ccc2c(c1)B(O)OC2)c1ccccc1C(F)(F)F` [MMV652003], for which the “Pathogen Box screen signal/noise ratio” value is given as 0.444. On to `CN1CCN(S(=O)(=O)c2ccc(-c3ccc4c(Nc5ccc6nn[nH]c6c5)ccnc4c3)cc2)CC1` [MMV687246], for which the “Pathogen Box screen signal/noise ratio” value is on record as 2.8.

With `CO[C@@H]1CN(c2ccc(C#CC3(O)CN4CCC3CC4)c(Cc3ccccc3)n2)C[C@H]1O` (some centres unmarked) [MMV688415], the “Pathogen Box screen signal/noise ratio” value is given as 1.0. Still for that read-out and setting: the result for `O=[N+]([O-])c1cn2c(n1)OC[C@@H](OCc1ccc(OC(F)(F)F)cc1)C2` [MMV688755] reads 0.4. As to `FC(F)(F)c1ccc(N(c2cccnc2)C2CCN(c3ccc(C(F)(F)F)cn3)CC2)cc1` [MMV689243], the “Pathogen Box screen signal/noise ratio” value was determined as 1.4. The same measure, in the same setting: the result for `COc1cc(NC(=O)Cc2nn(C)c(=O)c3ccccc23)ccc1Cl` [MMV676053] reads 1.3; that for `CC1=Nc2ccc(Cl)cc2C(O)(c2ccc(C)cc2)N1CCN1CCCCC1` (centres unmarked) [MMV688279], 0.8. On the same count and under the same terms, the figure for `COc1cccc(-c2nc3c(N4CCCC4)cccc3n2CC2CCCN2)n1` (centres unmarked) [MMV687703] is 1.3; for `CCOc1ccc(-c2nc(NC(=O)CS(=O)(=O)c3ccccc3)sc2C)cc1` [MMV007638] it is 0.254; for `CCOC(=O)c1noc(N)c1-c1ccccc1` [MMV1236379] it is 1.2. On to `CC(=O)N1CCc2cc3nc(C)cc(C)c3cc21` [MMV054312], for which the “Pathogen Box screen signal/noise ratio” value turned out to be 0.107.

For the compound `Cc1cc(C)n2nc(C(=O)Nc3cc(C(F)(F)F)ccc3N3CCOCC3)nc2n1` [MMV019087], the “Pathogen Box screen signal/noise ratio” value was 1.2. As to `Cc1cc2ccccc2n1CC(=O)N1CC(C(=O)N2CCCCC2)Oc2ccccc21` (centres unmarked) [MMV020520], the “Pathogen Box screen signal/noise ratio” value is 2.0. `CCCn1c(NC(=O)c2ccc3ccccc3n2)nc2ccccc21` [MMV1030799]: the “Pathogen Box screen signal/noise ratio” value was found to be 0.9.

Consider `c1coc(CNc2nc(N3CCCCC3)nc3ccccc23)c1` [MMV676401], for which the “Pathogen Box screen signal/noise ratio” value is recorded as 1.9. Consider `N=C(N)c1ccc(OCCCCCOc2ccc(C(=N)N)cc2)cc1` [MMV000062], for which the “Pathogen Box screen signal/noise ratio” value is 0.3. Consider `Nc1ccc(C(=O)Nc2ccc(-c3nc4ccccc4o3)cc2)cc1` [MMV007920], for which the “Pathogen Box screen signal/noise ratio” value was 0.9.

Take `CC1COC2(CCN(c3nc(=O)c4cc(C(F)(F)F)cc([N+](=O)[O-])c4s3)CC2)O1` (centres unmarked) [MMV676603]: the “Pathogen Box screen signal/noise ratio” value turned out to be 1.8. Regarding `Clc1cccc(CO[C@H]2CCc3ccccc3[C@@H]2n2ccnn2)c1` [MMV676159], the “Pathogen Box screen signal/noise ratio” value is reported as 1.0. Take `Nc1ncnc2c1ncn2[C@@H]1O[C@H](COS(=O)(=O)NC(=O)c2ccccc2O)[C@@H](O)[C@H]1O` [MMV687700]: the “Pathogen Box screen signal/noise ratio” value was 1.1. The same measure, in the same setting: the figure for `Cc1cc(OCC(=O)NCc2ccccc2)c2cc(Br)ccc2n1` [MMV687747] is 0.856; for `Nc1ncnc2[nH]nc(Cc3cccc4ccccc34)c12` [MMV688469] it is 0.357; for `CC1(COc2ccc(N3CCC(Oc4ccc(OC(F)(F)F)cc4)CC3)cc2)Cn2cc([N+](=O)[O-])nc2O1` (centres unmarked) [MMV688262] it is 0.232. With `COC(=O)c1c(NC(=O)c2cc3ccccc3oc2=O)sc2c1CCN(Cc1ccccc1)C2` [MMV676480], the “Pathogen Box screen signal/noise ratio” value turned out to be 1.3. Same read-out and setting: the figure for `Nc1ncc(Br)cc1-c1nc2cc(Cl)cnc2[nH]1` [MMV676358] is 4.8. In the case of `O=C(Nc1nc(-c2ccccn2)cs1)c1cncn1-c1ccccc1` [MMV676512], the “Pathogen Box screen signal/noise ratio” value worked out at 0.561. For the compound `CCNC(=O)C(C)Nc1nc(-c2cccnc2)nc2sc(C)c(C)c12` (centres unmarked) [MMV1037162], the “Pathogen Box screen signal/noise ratio” value was determined as 1.2.

Regarding `Brc1cncc(-c2cc(NCCCn3ccnc3)nc(-c3ccccc3)n2)c1` [MMV661713], the “Pathogen Box screen signal/noise ratio” value worked out at 0.5. In the case of `Cc1nn(C)cc1C(C)Nc1nncc(-c2ccc(C(F)(F)F)cc2)n1` (centres unmarked) [MMV019993], the “Pathogen Box screen signal/noise ratio” value was found to be 0.25. For `O=C1Nc2ccc(Br)cc2C12NCCc1c2[nH]c2ccccc12` (centres unmarked) [MMV006239], the “Pathogen Box screen signal/noise ratio” value is recorded as 2.0. On to `Nc1ncc(-c2ccc(C(F)(F)F)nc2)cc1-c1ccc(C(F)(F)F)nc1` [MMV668727], for which the “Pathogen Box screen signal/noise ratio” value is reported as 2.0.

As to `COc1cc(C2=NCCN2)ccc1-n1cc(-c2cccc(C3=NCCN3)c2)nn1` [MMV688474], the “Pathogen Box screen signal/noise ratio” value amounted to 0.217. With `COc1ccc(S(=O)(=O)Nc2ccc(CN3CCN(C(=O)c4cccc(C#N)c4)CC3)cc2)cc1` [MMV689029], the “Pathogen Box screen signal/noise ratio” value is reported as 0.156. Same read-out and setting: the result for `CC1(C)Cc2c(c(N3CCOCC3)nc3snc(Br)c23)CO1` [MMV687794] reads 0.0714; that for `COc1cccc(CC(=O)N2CCC(n3c(C)nc4ccc(F)cc43)CC2)c1` [MMV020081], 0.152.

As for `NC(CC(=O)c1ccc(Cl)cc1Cl)C(Cl)(Cl)Cl` (centres unmarked) [MMV676468], the “Pathogen Box screen signal/noise ratio” value was determined as 0.8. With `N#Cc1ccc(-c2cnc(N)c(-c3ccc(C(N)=O)cc3)n2)cc1` [MMV085499], the “Pathogen Box screen signal/noise ratio” value is listed as 2.4. In the case of `N=C(N)Nc1ccc(-c2ccc(-c3ccc(NC(=N)N)cc3Cl)o2)c(Cl)c1` [MMV688179], the “Pathogen Box screen signal/noise ratio” value amounted to 2.0. For the compound `CC(C)N=c1cc2n(-c3ccc(Cl)cc3)c3ccccc3nc-2cc1Nc1ccc(Cl)cc1` [MMV687800], the “Pathogen Box screen signal/noise ratio” value was found to be 0.6. As to `Cc1nc(-c2ccccn2)nc(NCCc2ccc(S(C)(=O)=O)cc2)c1Cl` [MMV658993], the “Pathogen Box screen signal/noise ratio” value was determined as 0.75. Take `COc1ccc(C2CC(c3cccs3)=NN2C(=O)c2ccco2)cc1OC` (centres unmarked) [MMV019234]: the “Pathogen Box screen signal/noise ratio” value was determined as 2.1. For the compound `CS(=O)(=O)Cc1nc2ccccc2oc1=O` [MMV553002], the “Pathogen Box screen signal/noise ratio” value was found to be 3.2. On to `CN1CCN(c2cc(-c3ccc(F)cc3)nc(-c3ccncc3)n2)CC1` [MMV688888], for which the “Pathogen Box screen signal/noise ratio” value is listed as 2.6. For the compound `Nc1ncnc2c1c(Cc1cccc3ccccc13)nn2CC1CCNCC1` [MMV676182], the “Pathogen Box screen signal/noise ratio” value amounted to 0.0.

With `CCc1nc2ccc(Cl)cn2c1C(=O)NCc1ccc(N2CCC(c3ccc(OC(F)(F)F)cc3)CC2)cc1` [MMV687696], the “Pathogen Box screen signal/noise ratio” value is 1.0. With `Cc1noc(C)c1C(=O)N1CCCC(c2[nH]c3c(C)cccc3c2-c2ccncc2)C1` (centres unmarked) [MMV020623], the “Pathogen Box screen signal/noise ratio” value is 2.5. `CC(C)(C)OC(=O)N1CCN(c2cc(-c3ccc(Oc4ccccc4)cc3)n[nH]2)CC1` [MMV676057]: the “Pathogen Box screen signal/noise ratio” value is on record as 1.2. `O=C(c1cc2ccccc2o1)N1CCN(Cc2ccc3c(c2)OCO3)CC1` [MMV676520]: the “Pathogen Box screen signal/noise ratio” value is listed as 1.1. Consider `CC(C)(C)C1CCC(CC2=C(O)C(=O)c3ccccc3C2=O)CC1` (centres unmarked) [MMV689480], for which the “Pathogen Box screen signal/noise ratio” value was 2.3.

Take `Cc1ccc2[nH]c(C3CCCNC3)c(-c3ccncc3)c2c1` (centres unmarked) [MMV024311]: the “Pathogen Box screen signal/noise ratio” value turned out to be 0.4.

Take `O=C(Nc1nnc(-c2ccc(Cl)cc2)o1)c1cccc(C(F)(F)F)c1` [MMV102872]: the “Pathogen Box screen signal/noise ratio” value amounted to 0.75. Same read-out and setting: the figure for `Cc1nnc(NCc2cccc(Cl)c2)c2ccccc12` [MMV676555] is 0.9; for `COc1cc(C2=NCCN2)ccc1-c1cn(-c2cccc(C3=NCCN3)c2)nn1` [MMV688407, 4-[4-(4,5-dihydro-1H-imidazol-2-yl)-2-methoxyphenyl]-1-[3-(4,5-dihydro-1H-imidazol-2-yl)phenyl]triazole] it is 8.0.

With `Cc1cc2nc(NC(=O)C(C)(C)C)nc(Cl)c2n1Cc1ccc(Cl)cc1` [MMV688704], the “Pathogen Box screen signal/noise ratio” value came out at 1.2. On the same count and under the same terms, the figure for `COc1cccc2c(C)nc(N=C(N)N)nc12` [MMV000907] is 1.1; for `O=C(NC1CC1)c1ccc(N2CCC(Cc3ccccc3)CC2)nc1` [MMV024397] it is 0.8; for `Cc1ccc(-c2cc(C(=O)Nc3cccnc3)c3cc(Br)ccc3n2)cc1` [MMV016838] it is 0.75. With `O=C(NCCN1CCCC1)c1cc(NCCCCN2CCC(F)(F)CC2)nc2ccc(Cl)cc12` [MMV667494], the “Pathogen Box screen signal/noise ratio” value was found to be 0.344. Take `Cc1cnc(N2CCN[C@@H](Cc3ccccc3)C2)nc1Oc1ccc(-n2ccnc2)cc1` [MMV687765]: the “Pathogen Box screen signal/noise ratio” value was 2.2. On to `CC(C)C(Oc1cccc2ccccc12)C(=O)O` (centres unmarked) [MMV676191], for which the “Pathogen Box screen signal/noise ratio” value was 0.9. In the case of `CC(C)(C)OC(=O)N1CCC(Cn2nc(-c3cnc4ccccc4c3)c3c(N)ncnc32)CC1` [MMV688364], the “Pathogen Box screen signal/noise ratio” value is 0.6. Regarding `COc1cccc(-n2nnnc2S(C)(=O)=O)c1` [MMV272144], the “Pathogen Box screen signal/noise ratio” value is given as 0.7. In the case of `CC1CCCCN1C(=O)NCCc1coc(-c2ccc(F)cc2)n1` (centres unmarked) [MMV688797], the “Pathogen Box screen signal/noise ratio” value amounted to 1.4. Turning to `Cc1nn2c(O)c3c(nc2c1-c1ccc(F)cc1)CCCC3` [MMV099637], the “Pathogen Box screen signal/noise ratio” value came to 3.3. For `Cc1ccc(S(=O)(=O)n2cc(-c3ccnc(N)c3)c3cc(Br)cnc32)cc1` [MMV024114], the “Pathogen Box screen signal/noise ratio” value is 1.1.

With `COC(=O)c1ccc(F)cc1NS(=O)(=O)c1cccc(-c2cnn(Cc3ccccc3)c2)c1` [MMV688350], the “Pathogen Box screen signal/noise ratio” value came out at 1.5. Same read-out and setting: the result for `COc1cccc(OC)c1C(=O)Nc1ccc(Cl)c(-c2nc3ccccc3s2)c1` [MMV676472] reads 0.348.
